Assay results from ChEMBL document CHEMBL1139688, “3,4,5-Trisubstituted isoxazoles as novel PPARdelta agonists. Part 2” (Bioorg Med Chem Lett, 2006).
Active and inactive are the calls of the source. The calls are words filed in the database; no cut-off is given here.

molecular target: T1, Peroxisome proliferator-activated receptor alpha (Homo sapiens, UniProt Q07869); assay: Activity at human PPAR alpha by cell-based transactivation assay; details: not given
T1 sequence (Q07869 whole entry): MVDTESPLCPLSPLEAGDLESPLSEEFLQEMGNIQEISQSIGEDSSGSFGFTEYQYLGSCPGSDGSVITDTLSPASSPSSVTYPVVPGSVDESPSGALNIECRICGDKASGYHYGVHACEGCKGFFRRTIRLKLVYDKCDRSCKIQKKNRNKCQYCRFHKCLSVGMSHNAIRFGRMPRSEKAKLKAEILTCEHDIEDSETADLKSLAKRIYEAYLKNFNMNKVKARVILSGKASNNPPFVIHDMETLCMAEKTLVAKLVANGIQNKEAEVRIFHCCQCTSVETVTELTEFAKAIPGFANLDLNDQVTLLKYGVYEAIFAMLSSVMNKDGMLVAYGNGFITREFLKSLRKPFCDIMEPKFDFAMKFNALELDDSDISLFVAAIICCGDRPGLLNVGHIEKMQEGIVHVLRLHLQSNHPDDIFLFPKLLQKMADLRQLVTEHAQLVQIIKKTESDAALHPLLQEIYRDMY

Row | Compound | EC50
1 | CC(C)c1onc(-c2cccc(CC(=O)O)c2)c1C(=O)NCCOc1ccc(Cl)cc1Cl | > 10 µM
2 | O=C(O)CCc1cccc(-c2noc(-c3ccccc3)c2C(=O)NCCOc2ccc(Cl)cc2Cl)c1 | > 10 µM
3 | O=C(O)Cc1ccc(-c2noc(-c3ccccc3)c2C(=O)NCCOc2ccc(Cl)cc2Cl)c(Cl)c1 | > 10 µM
4 | O=C(O)Cc1cccc(-c2noc(-c3ccccc3)c2C(=O)NCCOc2ccc(Cl)cc2Cl)c1 | > 10 µM
5 | Cc1ccccc1-c1onc(-c2cccc(CC(=O)O)c2)c1C(=O)NCCOc1ccc(Cl)cc1Cl | > 10 µM
6 | O=C(O)Cc1cccc(-c2noc(-c3ccccc3Cl)c2C(=O)NCCOc2ccc(Cl)cc2Cl)c1 | > 10 µM

molecular target: T2, Peroxisome proliferator-activated receptor gamma (Homo sapiens, UniProt P37231); assay: Activity at human PPAR gamma by cell-based transactivation assay; details: not given
T2 sequence (P37231 whole entry): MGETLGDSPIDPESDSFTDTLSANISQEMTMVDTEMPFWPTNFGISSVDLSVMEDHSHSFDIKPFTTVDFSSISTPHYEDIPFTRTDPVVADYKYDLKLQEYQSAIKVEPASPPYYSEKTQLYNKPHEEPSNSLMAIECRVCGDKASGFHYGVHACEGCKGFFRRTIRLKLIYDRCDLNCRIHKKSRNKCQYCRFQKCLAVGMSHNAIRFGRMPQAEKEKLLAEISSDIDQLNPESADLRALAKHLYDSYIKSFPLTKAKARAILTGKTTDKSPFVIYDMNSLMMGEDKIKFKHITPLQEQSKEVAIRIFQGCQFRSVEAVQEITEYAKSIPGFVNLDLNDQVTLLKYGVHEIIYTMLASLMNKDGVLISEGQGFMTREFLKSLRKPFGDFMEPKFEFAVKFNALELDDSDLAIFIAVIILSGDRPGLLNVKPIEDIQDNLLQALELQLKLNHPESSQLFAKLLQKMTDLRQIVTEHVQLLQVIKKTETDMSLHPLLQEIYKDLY

Row | Compound | EC50
7 | CC(C)c1onc(-c2cccc(CC(=O)O)c2)c1C(=O)NCCOc1ccc(Cl)cc1Cl | > 10 µM
8 | O=C(O)CCc1cccc(-c2noc(-c3ccccc3)c2C(=O)NCCOc2ccc(Cl)cc2Cl)c1 | > 10 µM
9 | O=C(O)Cc1ccc(-c2noc(-c3ccccc3)c2C(=O)NCCOc2ccc(Cl)cc2Cl)c(Cl)c1 | > 10 µM
10 | O=C(O)Cc1cccc(-c2noc(-c3ccccc3)c2C(=O)NCCOc2ccc(Cl)cc2Cl)c1 | > 10 µM
11 | Cc1ccccc1-c1onc(-c2cccc(CC(=O)O)c2)c1C(=O)NCCOc1ccc(Cl)cc1Cl | > 10 µM
12 | O=C(O)Cc1cccc(-c2noc(-c3ccccc3Cl)c2C(=O)NCCOc2ccc(Cl)cc2Cl)c1 | > 10 µM

molecular target: T3, Peroxisome proliferator-activated receptor delta (Homo sapiens, UniProt Q03181); assay: Activity at human PPAR delta by cell-based transactivation assay; details: not given
T3 sequence (Q03181 whole entry): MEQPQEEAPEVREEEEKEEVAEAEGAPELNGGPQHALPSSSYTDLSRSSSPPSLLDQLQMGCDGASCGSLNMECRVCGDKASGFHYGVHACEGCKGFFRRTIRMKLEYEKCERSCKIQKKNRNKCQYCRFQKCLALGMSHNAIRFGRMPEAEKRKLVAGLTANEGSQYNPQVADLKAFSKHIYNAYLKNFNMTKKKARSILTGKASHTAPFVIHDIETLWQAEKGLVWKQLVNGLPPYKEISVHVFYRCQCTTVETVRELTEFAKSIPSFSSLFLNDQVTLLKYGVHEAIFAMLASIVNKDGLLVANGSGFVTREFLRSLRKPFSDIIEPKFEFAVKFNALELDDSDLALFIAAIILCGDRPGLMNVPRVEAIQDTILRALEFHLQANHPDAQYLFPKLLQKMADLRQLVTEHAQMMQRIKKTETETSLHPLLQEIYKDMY

Row | Compound | EC50
13 | CC(C)c1onc(-c2cccc(CC(=O)O)c2)c1C(=O)NCCOc1ccc(Cl)cc1Cl | 1.07 µM
14 | O=C(O)CCc1cccc(-c2noc(-c3ccccc3)c2C(=O)NCCOc2ccc(Cl)cc2Cl)c1 | 0.97 µM
15 | O=C(O)Cc1cccc(-c2noc(-c3ccccc3)c2C(=O)NCCOc2ccc(Cl)cc2Cl)c1 | 0.07 µM
16 | Cc1ccccc1-c1onc(-c2cccc(CC(=O)O)c2)c1C(=O)NCCOc1ccc(Cl)cc1Cl | 0.05 µM
17 | O=C(O)Cc1cccc(-c2noc(-c3ccccc3Cl)c2C(=O)NCCOc2ccc(Cl)cc2Cl)c1 | 0.06 µM

test system: not listed separately; assay: Cmax in C57BL/6 mouse at 20 mg/kg, po; type: ADME, organism-based; parameters: dose 20 mg/kg, route oral; details: in vivo

Row | Compound | Cmax
18 | O=C(O)Cc1ccc(-c2noc(-c3ccccc3)c2C(=O)NCCOc2ccc(Cl)cc2Cl)c(Cl)c1 | < 0.3 µM
19 | O=C(O)Cc1cccc(-c2noc(-c3ccccc3)c2C(=O)NCCOc2ccc(Cl)cc2Cl)c1 | 5.1 µM
20 | Cc1ccccc1-c1onc(-c2cccc(CC(=O)O)c2)c1C(=O)NCCOc1ccc(Cl)cc1Cl | 1.9 µM
21 | O=C(O)Cc1cccc(-c2noc(-c3ccccc3Cl)c2C(=O)NCCOc2ccc(Cl)cc2Cl)c1 | 5.6 µM

test system: not listed separately; assay: Half life in C57BL/6 mouse at 20 mg/kg, po; type: ADME, organism-based; parameters: dose 20 mg/kg, route oral; details: in vivo

Row | Compound | half-life
22 | O=C(O)Cc1ccc(-c2noc(-c3ccccc3)c2C(=O)NCCOc2ccc(Cl)cc2Cl)c(Cl)c1 | < 0.5 h
23 | O=C(O)Cc1cccc(-c2noc(-c3ccccc3)c2C(=O)NCCOc2ccc(Cl)cc2Cl)c1 | 3.1 h
24 | Cc1ccccc1-c1onc(-c2cccc(CC(=O)O)c2)c1C(=O)NCCOc1ccc(Cl)cc1Cl | 1.5 h
25 | O=C(O)Cc1cccc(-c2noc(-c3ccccc3Cl)c2C(=O)NCCOc2ccc(Cl)cc2Cl)c1 | 1.1 h

test system: Mus musculus; assay: Regulation of PDK4 gene expression in C57BL/6 mouse skeletal muscle at 10 mg/kg, po; type: functional, organism-based; parameters: dose 10 mg/kg; details: Muscle tissue

Row | Compound | Activity
26 | O=C(O)Cc1cccc(-c2noc(-c3ccccc3)c2C(=O)NCCOc2ccc(Cl)cc2Cl)c1 | Active

test system: Mus musculus; assay: Regulation of ApoAIV gene expression in C57BL/6 mouse jejunum at 10 mg/kg, po; type: functional, organism-based; parameters: dose 10 mg/kg; details: not given

Row | Compound | Activity
27 | O=C(O)Cc1cccc(-c2noc(-c3ccccc3)c2C(=O)NCCOc2ccc(Cl)cc2Cl)c1 | Active

test system: Mus musculus; assay: Regulation of UCP3 gene expression in C57BL/6 mouse skeletal muscle at 10 mg/kg, po; type: functional, organism-based; parameters: dose 10 mg/kg; details: Muscle tissue

Row | Compound | Activity
28 | O=C(O)Cc1cccc(-c2noc(-c3ccccc3)c2C(=O)NCCOc2ccc(Cl)cc2Cl)c1 | Active

test system: not listed separately; assay: Stability in mouse liver microsomes; type: ADME, Microsome; details: not given

Row | Compound | Stability
29 | CC(C)c1onc(-c2cccc(CC(=O)O)c2)c1C(=O)NCCOc1ccc(Cl)cc1Cl | Stable
30 | O=C(O)CCc1cccc(-c2noc(-c3ccccc3)c2C(=O)NCCOc2ccc(Cl)cc2Cl)c1 | Stable
31 | O=C(O)Cc1ccc(-c2noc(-c3ccccc3)c2C(=O)NCCOc2ccc(Cl)cc2Cl)c(Cl)c1 | Stable
32 | O=C(O)Cc1cccc(-c2noc(-c3ccccc3)c2C(=O)NCCOc2ccc(Cl)cc2Cl)c1 | Stable
33 | Cc1ccccc1-c1onc(-c2cccc(CC(=O)O)c2)c1C(=O)NCCOc1ccc(Cl)cc1Cl | Stable
34 | O=C(O)Cc1cccc(-c2noc(-c3ccccc3Cl)c2C(=O)NCCOc2ccc(Cl)cc2Cl)c1 | Stable

test system: Liver microsomes; assay: Stability in rat liver microsomes; type: ADME, Microsome; details: not given

Row | Compound | Stability
35 | CC(C)c1onc(-c2cccc(CC(=O)O)c2)c1C(=O)NCCOc1ccc(Cl)cc1Cl | Stable
36 | O=C(O)CCc1cccc(-c2noc(-c3ccccc3)c2C(=O)NCCOc2ccc(Cl)cc2Cl)c1 | Stable
37 | O=C(O)Cc1ccc(-c2noc(-c3ccccc3)c2C(=O)NCCOc2ccc(Cl)cc2Cl)c(Cl)c1 | Stable
38 | O=C(O)Cc1cccc(-c2noc(-c3ccccc3)c2C(=O)NCCOc2ccc(Cl)cc2Cl)c1 | Stable
39 | Cc1ccccc1-c1onc(-c2cccc(CC(=O)O)c2)c1C(=O)NCCOc1ccc(Cl)cc1Cl | Stable
40 | O=C(O)Cc1cccc(-c2noc(-c3ccccc3Cl)c2C(=O)NCCOc2ccc(Cl)cc2Cl)c1 | Stable

test system: Liver microsomes; assay: Stability in human liver microsomes; type: ADME, Microsome; details: not given

Row | Compound | Stability
41 | CC(C)c1onc(-c2cccc(CC(=O)O)c2)c1C(=O)NCCOc1ccc(Cl)cc1Cl | Stable
42 | O=C(O)CCc1cccc(-c2noc(-c3ccccc3)c2C(=O)NCCOc2ccc(Cl)cc2Cl)c1 | Stable
43 | O=C(O)Cc1ccc(-c2noc(-c3ccccc3)c2C(=O)NCCOc2ccc(Cl)cc2Cl)c(Cl)c1 | Stable
44 | O=C(O)Cc1cccc(-c2noc(-c3ccccc3)c2C(=O)NCCOc2ccc(Cl)cc2Cl)c1 | Stable
45 | Cc1ccccc1-c1onc(-c2cccc(CC(=O)O)c2)c1C(=O)NCCOc1ccc(Cl)cc1Cl | Stable
46 | O=C(O)Cc1cccc(-c2noc(-c3ccccc3Cl)c2C(=O)NCCOc2ccc(Cl)cc2Cl)c1 | Stable
